Measurements: patent US20100209484A1, “Transdermal Triptan Delivery System” (priority 2009, published 2010)
Read-outs that look alike come from different tables or passages of the source.

Key:
[1] = cited from earlier work
[2] = system: isolated hairless mouse skin; assay: Skin permeation rate, flow-through diffusion cells; format: in vitro ADME; settings: for Flux / Lag time: n = 3
Protocol: Skin permeation rates of various zolmitriptan/enhancer formulations were determined using flow through diffusion cells. Permeation experiments were done on isolated hairless mouse skin. A system comprising a multi channel peristaltic pump, a fraction collector, a circulating water bath and flow-through diffusion cells was used. Each flow-through cell had two arms, which allowed the receiver cell medium pumped to a fraction collector. The diffusion cell temperature was maintained at 37° C. by circulating water through the outer part of jacketed receiver cell. The surface area of receiver cell opening as 2 cm^2, and its volume was 5.5 ml Skin was excised from hairless mouse that was sacrificed with diethyl ether. Subcutaneous fat was removed with scissors and scalpel. Each of the flow-through diffusion cell components was connected via silicone rubber tubing with an internal diameter of 0.015 inches. The receiver cell was filled with a pH 6 buffer solution and the media stirred by Teflon-coated magnetic bar. The transdermal device was placed on the stratum corneum and the excised skin was mounted onto each receiver cell. And O-ring and cell top was placed on the top of each skin. These components are then clamped. The amount of drug permeated across the skin was calculated from the cumulative release. The samples were collected every 4 hours for 24 hours and assayed by HPLC. This method was used to measure skin permeation rates referred to as transdermal flux or flux in the examples. Zolmitriptan was analyzed by an HPLC system (Shimadzu Scientific Instruments, MD), consisting of a UV detector (SPD-10A), reversed-phase C8 column, a pump (LC-10AD), and an automatic injector (SIL-10A). The method had been previously described (Vyas et. al., 2005). Briefly, the wavelength of the UV detector was 229 nm, the column temperature was maintained at 30° C., the flow rate was 1 ml/min and injection volume was 10 μl. The mobile phase used consisted of acetonitrile/phosphate buffer pH 7.5 (15/85).

[3] = Physical observation of patches by eye or microscope; format: physicochemical
Excerpt: Permeation is increased for a given concentration of triptan if the triptan is in solution in the matrix. The patches of Table 9 were stored at the room temperature for the designated period of time then observed by eye or/and a microscope. No crystals or white spots have been observed, and the patches are clear. […] This function has not previously been known for this class of compounds.

[4] = Solubility of zolmitriptan in pressure sensitive adhesive matrixes; format: physicochemical; settings: silicone and PIB adhesive matrixes
[5] = cited from earlier work; remark: listed apart in the source
[6] = acrylic adhesive matrix without functional group, zolmitriptan 4 wt%
[7] = adhesive matrix 87-2287 (hydroxyl functional group), zolmitriptan 4 wt%
[8] = adhesive matrix 87-2510 (hydroxyl functional group), zolmitriptan 4 wt%
[9] = adhesive matrix 87-2516 (hydroxyl functional group), zolmitriptan 4 wt%
[10] = drug concentration 4 wt% in 87-2510 matrix
[11] = drug concentration 5 wt% in 87-2510 matrix
[12] = drug concentration 7.5 wt% in 87-2510 matrix
[13] = drug concentration 10 wt% in 87-2510 matrix
[14] = matrix thickness 25 μm, 4% drug loading, 87-2510
[15] = matrix thickness 60 μm, 4% drug loading, 87-2510
[16] = matrix thickness 95 μm, 4% drug loading, 87-2510
[17] = matrix thickness 130 μm, 4% drug loading, 87-2510
[18] = matrix thickness 165 μm, 4% drug loading, 87-2510

CN(C)CCc1c[nH]c2ccc(CS(=O)(=O)N3CCCC3)cc12 [Almotriptan]
bioavailable amount after oral ingestion [1]: 69%

CN1CCC[C@@H]1Cc1c[nH]c2ccc(CCS(=O)(=O)c3ccccc3)cc12 [Eletriptan]
bioavailable amount after oral ingestion [1]: 50%

CN[C@@H]1CCc2[nH]c3ccc(C(N)=O)cc3c2C1 [Frovatriptan]
bioavailable amount after oral ingestion ([1]; in females): 30% | bioavailable amount after oral ingestion ([1]; in males): 24%

CNS(=O)(=O)CCc1ccc2[nH]cc(C3CCN(C)CC3)c2c1 [Naratriptan]
bioavailable amount after oral ingestion ([1]; in females): 74% | bioavailable amount after oral ingestion ([1]; in males): 63%

CN(C)CCc1c[nH]c2ccc(Cn3cncn3)cc12 [Rizatriptan]
bioavailable amount after oral ingestion [1]: 47%

CNS(=O)(=O)Cc1ccc2[nH]cc(CCN(C)C)c2c1 [Sumatriptan]
bioavailable amount after oral ingestion [1]: 14%

CN(C)CCc1c[nH]c2ccc(C[C@H]3COC(=O)N3)cc12 [Zolmitriptan]
bioavailable amount after oral ingestion [1]: 40% | Flux [2, 6]: 6.16 μg/cm^2hr | Lag time [2, 6]: 10.7 h | Flux [2, 7]: 6.5 μg/cm^2hr | Lag time [2, 7]: 13.0 h | Flux [2, 8]: 15.6 μg/cm^2hr | Lag time [2, 8]: 9.3 h | Flux [2, 9]: 14.4 μg/cm^2hr | Lag time [2, 9]: 11.8 h | Flux ([2]; adhesive matrix with carboxyl functional group, zolmitriptan 4 wt%): 0.22 μg/cm^2hr | Flux [2, 10]: 13.5 μg/cm^2hr | Lag time [2, 10]: 8.2 h | Flux [2, 11]: 14.8 μg/cm^2hr | Lag time [2, 11]: 8.5 h | Flux [2, 12]: 15.8 μg/cm^2hr | Lag time [2, 12]: 8.4 h | Flux [2, 13]: 18.3 μg/cm^2hr | Lag time [2, 13]: 9.0 h | change of flux with drug loading ([2]; drug loading in 87-2510 matrix increased from 4% to 10%): did not change significantly | Flux [2, 14]: 1.2 μg/cm^2hr | Lag time [2, 14]: 9.0 h | Flux [2, 15]: 6.1 μg/cm^2hr | Lag time [2, 15]: 5.5 h | Flux [2, 16]: 11.7 μg/cm^2hr | Lag time [2, 16]: 5.2 h | Flux [2, 17]: 14.1 μg/cm^2hr | Lag time [2, 17]: 7.0 h | Flux [2, 18]: 13.0 μg/cm^2hr | Lag time [2, 18]: 7.4 h | patch appearance ([3]; 4% drug load in 87-2510 matrix): clear | patch appearance ([3]; 5% or more drug load in 87-2510 matrix): milky | solubility in adhesive matrix [4]: inadequate | pKa [5]: 9.64 | solubility ([5]; in water and methanol): soluble
